Where “and” joins values, the source holds several entries; their conditions need not be identical. Equal entries are not always repeated. Inconclusive results and toxic doses are left out.
Test system: L1210 leukemia ip in BDF1 mice, survival T/C
Test: NCI In Vivo Anticancer Drug Screen. Data for tumor model L1210 Leukemia (intraperitoneal) in B6D2F1 (BDF1) mice
Details: endpoint: mean survival time, higher = longer survival
Outline: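 Transplanted-tumor mice were given test agent; controls received vehicle only. Survival readings from the two groups were divided (treated over control).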

[1] = dose: 100.0 mg/kg/injection, schedule: Q04DX003 (ip), vehicle: saline with Tween-80
[2] = dose: 200.0 mg/kg/injection, schedule: Q04DX003 (ip), vehicle: saline with Tween-80
[3] = dose: 400.0 mg/kg/injection, schedule: Q04DX003 (ip), vehicle: saline with Tween-80
[4] = dose: 150.0 mg/kg/injection, schedule: Q01DX001 (ip), vehicle: saline
[5] = dose: 300.0 mg/kg/injection, schedule: Q01DX001 (ip), vehicle: saline
[6] = dose: 100.0 mg/kg/injection, schedule: Q01DX001 (ip), vehicle: carboxymethylcellulose (CMC)
[7] = dose: 200.0 mg/kg/injection, schedule: Q01DX001 (ip), vehicle: carboxymethylcellulose (CMC)
[8] = dose: 400.0 mg/kg/injection, schedule: Q01DX001 (ip), vehicle: carboxymethylcellulose (CMC)
[9] = dose: 25.0 mg/kg/injection, schedule: Q01DX009 (ip), vehicle: saline with Tween-80
[10] = dose: 50.0 mg/kg/injection, schedule: Q01DX009 (ip), vehicle: saline with Tween-80
[11] = dose: 100.0 mg/kg/injection, schedule: Q04DX003 (ip), vehicle: saline
[12] = dose: 200.0 mg/kg/injection, schedule: Q04DX003 (ip), vehicle: saline
[13] = dose: 400.0 mg/kg/injection, schedule: Q04DX003 (ip), vehicle: saline
[14] = dose: 100.0 mg/kg/injection, schedule: Q04DX002 (ip), vehicle: Klucel (hydroxypropylcellulose) (HPC)
[15] = dose: 200.0 mg/kg/injection, schedule: Q04DX002 (ip), vehicle: Klucel (hydroxypropylcellulose) (HPC)
[16] = dose: 50.0 mg/kg/injection, schedule: Q01DX001 (ip), vehicle: saline
[17] = dose: 100.0 mg/kg/injection, schedule: Q01DX001 (ip), vehicle: saline
[18] = dose: 200.0 mg/kg/injection, schedule: Q01DX001 (ip), vehicle: saline
[19] = dose: 400.0 mg/kg/injection, schedule: Q01DX001 (ip), vehicle: saline
[20] = dose: 100.0 mg/kg/injection, schedule: Q04DX002 (ip), vehicle: saline
[21] = dose: 100.0 mg/kg/injection, schedule: Q01DX009 (ip), vehicle: saline with Tween-80
[22] = dose: 50.0 mg/kg/injection, schedule: Q01DX001 (ip), vehicle: carboxymethylcellulose (CMC)
[23] = dose: 100.0 mg/kg/injection, schedule: Q04DX003 (ip), vehicle: Klucel (hydroxypropylcellulose) (HPC)
[24] = dose: 200.0 mg/kg/injection, schedule: Q04DX003 (ip), vehicle: Klucel (hydroxypropylcellulose) (HPC)
[25] = dose: 400.0 mg/kg/injection, schedule: Q04DX003 (ip), vehicle: Klucel (hydroxypropylcellulose) (HPC)

For `COc1cccc2c1C(=O)CC2`, the T/C (dose: 25.0 mg/kg/injection, schedule: Q01DX009 (ip), vehicle: acetone) was 101 % of control, the T/C (dose: 50.0 mg/kg/injection, schedule: Q01DX009 (ip), vehicle: acetone) was 106 % of control and the T/C (dose: 100.0 mg/kg/injection, schedule: Q01DX009 (ip), vehicle: acetone) was 103 % of control. The T/C [1] was 87 % of control.
For `O=C(O)c1cc2ccccc2[nH]1`, the T/C [1] was 95 % of control, the T/C [2] was 95 % of control and the T/C [3] was 90 % of control.
With `COc1cc2ccnc(-c3onc4cc(OC)c(OC)cc34)c2cc1OC` the T/C (dose: 75.0 mg/kg/injection, schedule: Q01DX001 (ip), vehicle: saline) was 101 % of control, the T/C [4] was 98 % of control and the T/C [5] was 98 % of control.
`CCCCCCCCCCSCCSCCCCCCCCCC` was tested, and the T/C [6] was 95 % of control, the T/C [1] was 96 % of control and the T/C [7] was 101 % of control. The T/C [2] was 93 % of control, the T/C [8] was 95 % of control and the T/C [3] was 89 % of control.
With `CO[Si](OC)(OC)OC` the T/C [9] was 92 % of control, the T/C (dose: 25.0 mg/kg/injection, schedule: Q04DX003 (ip), vehicle: saline) was 94 % of control and the T/C [10] was 92 % of control. For the same compound, the T/C (dose: 50.0 mg/kg/injection, schedule: Q04DX003 (ip), vehicle: saline) was 108 % of control, the T/C [1] was 101 % of control and the T/C [11] was 103 % of control.
In the case of `COc1ccc(C(=O)c2cnc(C)n2Cc2ccccc2)cc1`, the T/C (dose: 100.0 mg/kg/injection, schedule: Q01DX009 (ip), vehicle: Klucel (hydroxypropylcellulose) (HPC)) is reported as 106 % of control, the T/C (dose: 200.0 mg/kg/injection, schedule: Q01DX009 (ip), vehicle: Klucel (hydroxypropylcellulose) (HPC)) is reported as 106 % of control and the T/C (dose: 400.0 mg/kg/injection, schedule: Q01DX009 (ip), vehicle: Klucel (hydroxypropylcellulose) (HPC)) is reported as 114 % of control.
`CCCCCCCCOP(OCCCCCCCC)OCCCCCCCC` was tested, and the T/C [11] was 95 % of control, the T/C [12] was 98 % of control and the T/C [13] was 104 % of control.
In the case of `CN1CCN(C2=Cc3ccccc3C(O)C(Cc3ccccc3)=N2)CC1` (centres undefined), the T/C [1] is reported as 100 % of control, the T/C [2] is reported as 96 % of control and the T/C [3] is reported as 96 % of control.
For `CCOC(=O)C(=N\Nc1ccccc1OC)/C(C)=N\NC(N)=S`, the T/C (dose: 75.0 mg/kg/injection, schedule: Q01DX001 (ip), vehicle: acetone) was 93 % of control, the T/C (dose: 150.0 mg/kg/injection, schedule: Q01DX001 (ip), vehicle: acetone) was 90 % of control and the T/C [4] was 94 % of control.
For `Cc1cccc(NCC(=O)NN)c1`, the T/C [14] was 100 % of control and the T/C [15] was 115 % of control.
For `Cn1c(=O)c2[nH]c(C3CCC3)nc2n(C)c1=O`, the T/C [16] was 110 % of control, the T/C [17] was 113 % of control and the T/C [18] was 101 % of control. For the same compound, the T/C [19] was 107 % of control.
With `NCCCCC(N)C(=O)CCl` (centres undefined) the T/C (dose: 25.0 mg/kg/injection, schedule: Q04DX002 (ip), vehicle: saline) was 110 % of control, the T/C (dose: 50.0 mg/kg/injection, schedule: Q04DX002 (ip), vehicle: saline) was 97 % of control and the T/C [20] was 94 % of control.
`CCCc1cc(CN2CCOCC2)c(O)c(CN2CCOCC2)c1O` was tested, and the T/C [17] was 91 % of control, the T/C [18] was 93 % of control and the T/C [19] was 95 % of control.
`COC1OC(C)CC(O)C1O` (centres undefined) was tested, and the T/C [11] was 97 % of control, the T/C [12] was 103 % of control and the T/C [13] was 109 % of control.
For `CCOC(=O)C(C)C(=O)Cc1cc(OC)c(C)cc1Br` (centres undefined), the T/C [21] was 97 % of control, the T/C [1] was 97 % of control and the T/C (dose: 200.0 mg/kg/injection, schedule: Q01DX009 (ip), vehicle: saline with Tween-80) was 100 % of control. The T/C [2] was 95 % of control, the T/C (dose: 400.0 mg/kg/injection, schedule: Q01DX009 (ip), vehicle: saline with Tween-80) was 105 % of control and the T/C [3] was 109 % of control.
With `COC1OC(CNC(=O)N(C)N=O)C(O)C(O)C1O` (centres undefined) the T/C [11] was 115 % of control, the T/C (dose: 115.0 mg/kg/injection, schedule: Q04DX003 (ip), vehicle: saline) was 116 % of control and the T/C (dose: 132.0 mg/kg/injection, schedule: Q04DX003 (ip), vehicle: saline) was 120 % of control. For the same compound, the T/C (dose: 200.0 mg/kg/injection, schedule: Q01DX009 (ip), vehicle: saline) was 150 % of control and 170 % of control, the T/C (dose: 300.0 mg/kg/injection, schedule: Q01DX009 (ip), vehicle: saline) was 173 % of control and the T/C (dose: 400.0 mg/kg/injection, schedule: Q01DX009 (ip), vehicle: saline) was 166 % of control. For the same compound, the T/C [13] was 150 % of control and 160 % of control.
For `COc1ccccc1N1CCN(CC(O)COc2ccccc2C(C)=O)CC1` (centres undefined), the T/C [9] was 107 % of control, the T/C [10] was 105 % of control and the T/C [21] was 109 % of control. The T/C [1] was 96 % of control.
With `Cc1[nH]c(=O)[nH]c(=O)c1Br` the T/C (dose: 37.0 mg/kg/injection, schedule: Q01DX Z (ip), vehicle: methylcellulose (MC)) was 91 % of control, the T/C (dose: 75.0 mg/kg/injection, schedule: Q01DX Z (ip), vehicle: methylcellulose (MC)) was 96 % of control and the T/C (dose: 150.0 mg/kg/injection, schedule: Q01DX Z (ip), vehicle: methylcellulose (MC)) was 86 % of control.
With `CC(=O)c1ccc(Oc2ccc(C(C)=O)cc2)cc1` the T/C [22] was 103 % of control, the T/C [6] was 105 % of control and the T/C [14] was 106 % of control. The T/C [7] was 92 % of control, the T/C [15] was 102 % of control and the T/C [8] was 92 % of control. For the same compound, the T/C (dose: 400.0 mg/kg/injection, schedule: Q04DX002 (ip), vehicle: Klucel (hydroxypropylcellulose) (HPC)) was 91 % of control.
In the case of `Nc1ccc2nc(NCCCO)c3ccccc3c2c1`, the T/C [23] is reported as 107 % of control, the T/C [24] is reported as 113 % of control and the T/C [25] is reported as 102 % of control.
`O=C1OC2(Cc3ccccc31)c1ccccc1-c1ccccc12` was tested, and the T/C (dose: 25.0 mg/kg/injection, schedule: Q04DX003 (ip), vehicle: Klucel (hydroxypropylcellulose) (HPC)) was 91 % of control, the T/C (dose: 50.0 mg/kg/injection, schedule: Q04DX003 (ip), vehicle: Klucel (hydroxypropylcellulose) (HPC)) was 90 % of control and the T/C [23] was 88 % of control. For the same compound, the T/C [24] was 88 % of control and the T/C [25] was 90 % of control.
For `CC(=O)OCC1OC(Oc2c(C)cc([N+](=O)[O-])cc2[N+](=O)[O-])C(OC(C)=O)C(OC(C)=O)C1OC(C)=O` (centres undefined), the T/C [1] was 94 % of control, the T/C [2] was 100 % of control and the T/C [3] was 100 % of control.
In the case of `CC(=O)OC1CCSc2ccccc21` (centres undefined), the T/C [22] is reported as 95 % of control, the T/C [6] is reported as 93 % of control and the T/C [7] is reported as 104 % of control. For the same compound, the T/C [8] was 90 % of control.
With `Cc1ccc(/C=C2\CCC3C(=O)CCCC3C2=O)cc1` (centres undefined) the T/C [17] was 107 % of control and the T/C [18] was 89 % of control.
`CCCCCCCC(=O)N1C=CN(C(=O)CCCCCCC)C1` was tested, and the T/C (dose: 30.0 mg/kg/injection, schedule: Q01DX001 (ip), vehicle: saline) was 100 % of control, the T/C [17] was 94 % of control and the T/C [5] was 94 % of control.
`Ic1cccc2cc3cccc[n+]3cc12` was tested, and the T/C (dose: 9.9 mg/kg/injection, schedule: Q01DX Z (ip), vehicle: carboxymethylcellulose (CMC)) was 102 % of control, the T/C (dose: 14.6 mg/kg/injection, schedule: Q01DX Z (ip), vehicle: carboxymethylcellulose (CMC)) was 103 % of control and the T/C (dose: 22.0 mg/kg/injection, schedule: Q01DX Z (ip), vehicle: carboxymethylcellulose (CMC)) was 91 % of control.
`CC(=O)NC(CC(N)=O)C(=O)O` (centres undefined) was tested, and the T/C [20] was 96 % of control, the T/C (dose: 200.0 mg/kg/injection, schedule: Q04DX002 (ip), vehicle: saline) was 99 % of control and the T/C (dose: 400.0 mg/kg/injection, schedule: Q04DX002 (ip), vehicle: saline) was 99 % of control.
With `c1ccc(-c2ccc(-c3ccccc3)c(-c3ccc4c(c3)CCC4)c2-c2ccccc2)cc1` the T/C [1] was 96 % of control, the T/C [2] was 96 % of control and the T/C [3] was 89 % of control.
For `COC(=O)c1cc(C)cc(N)c1C`, the T/C [17] was 102 % of control, the T/C [18] was 109 % of control and the T/C [19] was 104 % of control.
For `NC(=S)N/N=C1/CCCCC12CCCCC2`, the T/C [16] was 116 % of control, the T/C [17] was 91 % of control and the T/C [18] was 124 % of control. The T/C [19] was 100 % of control.
For `CNC(=O)CCC(NC(=O)c1ccc(N(C)Cc2cnc3nc(N)nc(N)c3n2)cc1)C(=O)O` (centres undefined), the T/C (dose: 25.0 mg/kg/injection, schedule: Q01DX009 (ip), vehicle: sodium bicarbonate) was 116 % of control and the T/C (dose: 100.0 mg/kg/injection, schedule: Q01DX009 (ip), vehicle: sodium bicarbonate) was 158 % of control.

Reference: PubChem BioAssay AID248 (DTP/NCI, 2004)
